Measurements as given in patent US9757375B2, “Compounds that inhibit human DNA ligases and methods of treating cancer” (University of Maryland, Baltimore, priority 2007, dated 2017).
Where two headings read alike, the source gives them in different places.

Tests used:
MCF10A cells [1] = test: MTT cell growth assay; type: cell-based, human; details: for IC50: Homo sapiens, MCF-10A
Method in brief: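 Seeded at 300 cells/well and allowed to adhere overnight, then serial compound dilutions in medium added for 5 days. MTT added for a further 4 h, formazan dissolved in isopropanol, and absorbance read at 560 nm.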

HCT116 cells [2] = test: Colony forming (survival) assay; type: cell-based, human; details: for potentiation of killing by ionizing radiation: HCT116, 2 gray
Method: (§1) For survival assays, cells were plated in 6 well plates and grown either in the absence or presence of ligase inhibitors. Where indicated, either MMS (0-50 μM) was added to the medium or the cells were irradiated in a Cs-137 irradiator (0-2.5 Gy). After two weeks, colonies were stained with crystal violet (Sigma) and then counted.
(§2) To confirm that the DNA ligase inhibitors directly kill cells and potentiate cell killing by DNA damaging agents, we performed colony forming assays.
(§3) Different concentrations of Compound 184 were added to asynchronous subconfluent populations of HCT116, MCF7 and MCF10A cells. Colonies were counted after two weeks. (FIG. 6A).
(§4) Different concentrations of Compound 151 were added to asynchronous subconfluent populations of HCT116 and MCF10A cells in the absence or presence of MMS (50 μM). Colonies were counted after two weeks. (FIG. 6B).
(§5) Different concentrations of Compound 189 were added to asynchronous subconfluent populations of HCT116 and MCF10A cells. After 1 hour, cultures were irradiated with 2 gray of ionizing radiation. Colonies were counted after two weeks. (FIG. 6C).
(§6) Different concentrations of Compound 67 were added to asynchronous subconfluent populations of HCT116, MCF7 and MCF10A cells. After 1 hour, cultures were irradiated with 2 gray of ionizing radiation. Different concentrations of Compound 67 were added to asynchronous subconfluent populations of HCT116 and MCF10A cells in the absence or presence of MMS (50 μM). Colonies were counted after two weeks. (FIG. 6D).

MCF10A cells [3] = test: Colony forming (survival) assay; type: cell-based, human; details: colonies after two weeks; for effect on MMS cytotoxicity: MMS 50 μM
Method: as §1, §2, §3, §4, §5, §6

hLigIIIβ = target: T1, hLigIIIβ (Homo sapiens, UniProt P49916); test: Radioactive gel-based DNA ligation assay; type: biochemical; details: grades ±, Ø (key not given)
T1 sequence (P49916 1-862 isoform P49916-4): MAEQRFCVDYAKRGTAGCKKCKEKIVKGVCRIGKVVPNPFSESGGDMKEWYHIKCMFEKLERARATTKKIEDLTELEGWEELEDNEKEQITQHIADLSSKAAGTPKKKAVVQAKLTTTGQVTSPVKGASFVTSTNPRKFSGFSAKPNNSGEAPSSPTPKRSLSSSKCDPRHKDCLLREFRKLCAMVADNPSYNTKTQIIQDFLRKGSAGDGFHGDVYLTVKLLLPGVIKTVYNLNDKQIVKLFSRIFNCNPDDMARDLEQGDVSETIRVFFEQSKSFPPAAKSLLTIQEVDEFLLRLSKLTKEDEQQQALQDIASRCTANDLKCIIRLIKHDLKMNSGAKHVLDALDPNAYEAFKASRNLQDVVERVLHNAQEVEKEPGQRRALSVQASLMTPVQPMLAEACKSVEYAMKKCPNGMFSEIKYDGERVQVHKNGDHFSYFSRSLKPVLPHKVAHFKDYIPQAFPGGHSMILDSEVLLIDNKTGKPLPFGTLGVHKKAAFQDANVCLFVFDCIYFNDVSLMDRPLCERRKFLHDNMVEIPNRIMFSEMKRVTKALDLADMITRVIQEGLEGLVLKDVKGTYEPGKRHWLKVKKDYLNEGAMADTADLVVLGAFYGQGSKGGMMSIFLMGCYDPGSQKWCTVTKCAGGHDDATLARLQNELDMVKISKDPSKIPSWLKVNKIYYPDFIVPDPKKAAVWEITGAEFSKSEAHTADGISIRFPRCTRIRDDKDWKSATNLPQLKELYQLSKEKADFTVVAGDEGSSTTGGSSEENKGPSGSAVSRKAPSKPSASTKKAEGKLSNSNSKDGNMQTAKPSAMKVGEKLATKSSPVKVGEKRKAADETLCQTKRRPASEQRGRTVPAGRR

HCT116 cells [4] = test: Screen for potentiation of DNA damaging agents (MMS, camptothecin, cis-platinum, 3 aminobenzamide, ionizing radiation); type: cell-based, human; details: with 2 Gy ionizing radiation, tick mark only
[5] = cell growth, compound alone, read-out: IC50 (μM) MCF10A
[6] = sections 'high concentrations (~50 μM)' and 'active in vitro that decreased cell growth', same figures given in μM elsewhere in Table 6, read-out: IC50 MCF10A (head without unit)

Compound: O=C(O)CSc1cc(Cl)c2nonc2c1[N+](=O)[O-] [Compound 64]
- IC50 (MCF10A cells [1]; [5]): 50 µM
- IC50 (MCF10A cells [1]; [6]): 50 µM
- potentiation of the growth inhibitory effect of 3 aminobenzamide (MCF10A cells [1]; MCF10A cells, 3 aminobenzamide 2 mM, 5 days, MTT, FIG. 5B): markedly potentiates

Compound: Cc1c(Br)cc(NCC(=O)N/N=C\c2cc([N+](=O)[O-])ccc2O)cc1Br [Compound 67]
- IC50 (MCF10A cells [1]; [5]): 4 µM
- IC50 (MCF10A cells [1]; [6]): 4 µM
- potentiation of killing by ionizing radiation (HCT116 cells [2]; colonies after two weeks): potentiates
- effect on ionizing radiation-induced cytotoxicity (MCF10A cells [3]; 2 gray): no significant effect
- effect on MMS cytotoxicity (MCF10A cells [3]): no significant effect

Compound: COc1ccc(-c2cnc3c(O)nc(O)nc3n2)cc1 [Compound 190]
- % activity Inhibition hLigIII gel (hLigIIIβ): Ø

Compound: O=C(Cn1cnc([N+](=O)[O-])n1)N/N=C/c1ccc(O)cc1O [Compound 151]
- % activity Inhibition hLigIII gel (hLigIIIβ): Ø
- IC50 (MCF10A cells [1]; [5]): 6 µM
- IC50 (MCF10A cells [1]; [6]): 6 µM
- potentiation of killing by MMS (HCT116 cells [2]; HCT116, MMS 50 μM, colonies after two weeks): markedly potentiates
- effect on MMS cytotoxicity (MCF10A cells [3]): no significant effect
- % growth inhibition HCT116 [2 Gy] 5-15 uM (HCT116 cells [4]): ✓

Compound: O=C1Nc2ccccc2Oc2cc([N+](=O)[O-])cc([N+](=O)[O-])c21 [Compound 180]
- IC50 (MCF10A cells [1]; [5]): 3 µM
- IC50 (MCF10A cells [1]; [6]): 3 µM

Compound: C/C(O)=C1/C(=O)N(c2nc3ccccc3s2)N=C1c1ccccc1 [Compound 43]
- % activity Inhibition hLigIII gel (hLigIIIβ): Ø

Compound: CS(=O)(=O)NNC(=O)C(=O)NNc1ccccc1 [Compound 184]
- % activity Inhibition hLigIII gel (hLigIIIβ): Ø
- cell killing (colony formation) (HCT116 cells [2]; HCT116, compound alone, compared with MCF10A, FIG. 6A): more effective at killing
- cell killing (colony formation) (MCF10A cells [3]; compound alone, FIG. 6A): kills
- % growth inhibition HCT116 [2 Gy] 5-15 uM (HCT116 cells [4]): ✓

Compound: O=C(c1ccc(O)cc1)c1ccccc1O [Compound 200]
- IC50 (MCF10A cells [1]; [5]): ~5 µM
- IC50 (MCF10A cells [1]; [6]): 10 to 150 µM
- % growth inhibition HCT116 [2 Gy] 5-15 uM (HCT116 cells [4]): ✓

Compound: Nc1nc(S)nc(O)c1/N=C/c1ccccc1 [Compound 189]
- potentiation of killing by ionizing radiation (HCT116 cells [2]; colonies after two weeks): markedly potentiates
- effect on MMS cytotoxicity (MCF10A cells [3]): no significant effect
